Data: patent publication US4929751A, “Vinyl tricarbonyl compounds and methods of making the same” (Yale University, priority 1987, dated 1990)
Read-outs that look alike come from different tables or passages of the source.

Assays:
Assay in all cases: growth inhibition of tumor cell line
Assay type in all cases: cell-based
[1] = test system: SNB-75 (central nervous system); conditions: Homo sapiens
Description: (§1) t-Butyl 2,3-dioxo-pent-4-enoate hydrate (A) was contacted with various cell lines as indicated on Table 1 hereinbelow in the column designated as "CELL" or "TUMOR". […]
(§2) Table 1 reports and illustrates the results obtained by testing t-butyl 2,3-dioxo-pent-4-enoate hydrate. The concentration of this compound found to inhibit the growth of each cell line listed under "CELL" by 50% is reported under "LOG(IC50)" as the logarithm of the concentration. The units of concentration are either molarity in which case an "M" is shown in parentheses next to the LOG(IC50) label, or micrograms per ml, in which case a "W" (for weight) is shown in parenthesis. The cell line names are grouped by disease type and the disease type names are listed on the far left.

[2] = test system: MALME-3M (melanoma); conditions: Homo sapiens
Description: as §1, §2

[3] = test system: SNB-19 (central nervous system); conditions: Homo sapiens
Description: as §1, §2

[4] = test system: SK-MEL5 (melanoma); conditions: Homo sapiens
Description: as §1, §2

[5] = test system: MCF-7 (breast); conditions: Homo sapiens
Description: as §1, §2

[6] = test system: TE-671 (central nervous system); conditions: Homo sapiens
Description: as §1, §2

[7] = test system: H69 (small cell lung cancer)
Description: as §1, §2

[8] = test system: A704 (renal); conditions: Homo sapiens
Description: as §1, §2

[9] = test system: OVCAR-8 (ovarian); conditions: Homo sapiens
Description: as §1, §2

[10] = logarithm of the concentration inhibiting growth by 50%, read-out: LOG(IC50) (converted)

IC90 [1]: 231 µM
IC50 [1, 10]: 79.4 µM
IC50 ([1]; read-out: IC-50 MEAN): 81.5 µM
IC90 [2]: 180 µM
IC50 ([2]; MALME-3, logarithm of the concentration inhibiting growth by 50%, read-out: LOG(IC50) (converted)): 100 µM
IC50 ([2]; read-out: IC-50 MEAN): 78.8 µM
IC90 [3]: 243 µM
IC50 [3, 10]: 100 µM
IC50 ([3]; read-out: IC-50 MEAN): 95.2 µM
IC90 ([4]; SK-MEL-5): 222 µM
IC50 ([4]; SK-MEL-5, logarithm of the concentration inhibiting growth by 50%, read-out: LOG(IC50) (converted)): 63.1 µM
IC50 ([4]; SK-MEL-5, read-out: IC-50 MEAN): 74.2 µM
IC90 ([5]; MCF7): 232 µM
IC50 ([5]; MCF7, logarithm of the concentration inhibiting growth by 50%, read-out: LOG(IC50) (converted)): 100 µM
IC50 ([5]; MCF7, read-out: IC-50 MEAN): 98.1 µM
IC90 [6]: 231 µM
IC50 [6, 10]: 126 µM
IC50 ([6]; read-out: IC-50 MEAN): 114 µM
IC50 ([7]; H69, logarithm of the concentration inhibiting growth by 50%, read-out: LOG(IC50) (converted)): 100 µM
IC90 ([7]; Homo sapiens, NCI-H69): 269 µM
IC50 ([7]; Homo sapiens, NCI-H69, read-out: IC-50 MEAN): 95.5 µM
IC90 [8]: 229 µM
IC50 [8, 10]: 50.1 µM
IC50 ([8]; read-out: IC-50 MEAN): 46.6 µM
IC90 [9]: 263 µM
IC50 [9, 10]: 126 µM
IC50 ([9]; read-out: IC-50 MEAN): 114 µM
SMILES: C=CC(=O)C(O)(O)C(=O)OC(C)(C)C [t-butyl 2,3-dioxo-pent-4-enoate hydrate]
